Measured values as given in BindingDB's records for doi:10.1016/j.bmcl.2009.01.068 (Methylgene, 2009).

Legend:
[1] = Inhibition of c-Met-mediated scattering in HGF-stimulated human DU145 cells
[2] = Inhibition of c-Met-mediated migration in HGF-stimulated human A549 cells by wound healing assay

Question: What does the source list for `CCn1cnc(-c2cc3nccc(Oc4ccc(NC(=O)N5CCN(c6ccc(F)cc6)C5=O)cc4F)c3s2)c1` [N-(4-(2-(1-ethyl-1H-imidazol-4-yl)thieno[3,2-b]pyridin-7-yloxy)-3-fluorophenyl)-3-(4-fluorophenyl)-2-oxoimidazolidine-1-carboxamide]?
Answer: IC50 [1]: 0.08 µM; IC50 [2]: 0.24 µM
